Assay results reported in ChEMBL document CHEMBL3351468, “Tritium-labelled isovaleryl-RYYRIK-NH2 as potential antagonist probe for ORL1 nociceptin receptor” (Bioorg Med Chem, 2014).

Assays:
Nociceptin receptor [1] = molecular target: T1, Nociceptin receptor (Homo sapiens, UniProt P41146); assay: Displacement of [3H]]nociceptin from human ORL1 receptor expressed in African green monkey COS7 cells after 90 mins by topcount analysis; type: cell-based, COS-7
Nociceptin receptor [2] = molecular target: T1, Nociceptin receptor; assay: Partial agonist activity at human ORL1 receptor expressed in African green monkey COS7 cells after 90 mins by topcount analysis; type: cell-based; details: COS-7
Nociceptin receptor [3] = molecular target: T1, Nociceptin receptor; assay: Displacement of [3H]]nociceptin from human ORL1 receptor low affinity binding site expressed in African green monkey COS7 cells after 90 mins by topcount analysis
Nociceptin receptor [4] = molecular target: T1, Nociceptin receptor; assay: Displacement of [3H]]nociceptin from human ORL1 receptor high affinity binding site expressed in African green monkey COS7 cells after 90 mins by topcount analysis
Nociceptin receptor [5] = molecular target: T1, Nociceptin receptor; assay: Displacement of [3H]isoVa-RYYRIK-NH2 from human ORL1 receptor expressed in African green monkey COS7 cells after 90 mins by topcount analysis; type: cell-based, COS-7
Nociceptin receptor [6] = molecular target: T1, Nociceptin receptor; assay: Binding affinity to human ORL1 receptor expressed in African green monkey COS7 cells assessed per mg protein after 90 mins by Scatchard plot analysis; type: cell-based, COS-7

T1 sequence (P41146 whole entry): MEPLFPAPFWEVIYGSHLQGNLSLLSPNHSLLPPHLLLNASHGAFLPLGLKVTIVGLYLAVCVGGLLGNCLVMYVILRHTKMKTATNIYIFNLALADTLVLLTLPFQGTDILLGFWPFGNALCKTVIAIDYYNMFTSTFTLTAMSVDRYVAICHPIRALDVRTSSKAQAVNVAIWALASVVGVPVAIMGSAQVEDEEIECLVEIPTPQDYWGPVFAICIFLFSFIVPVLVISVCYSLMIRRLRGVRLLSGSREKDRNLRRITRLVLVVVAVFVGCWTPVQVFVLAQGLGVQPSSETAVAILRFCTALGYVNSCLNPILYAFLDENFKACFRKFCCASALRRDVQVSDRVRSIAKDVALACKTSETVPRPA

For CCC(=O)N[C@@H](CCCNC(=N)N)C(=O)N[C@@H](Cc1ccc(O)cc1)C(=O)N[C@@H](Cc1ccc(O)cc1)C(=O)N[C@@H](CCCNC(=N)N)C(=O)N[C@H](C(=O)N[C@@H](CCCCN)C(N)=O)[C@@H](C)CC, which IC50 (Nociceptin receptor [1]) is on record?
Its IC50 is 1.39 nM.

And the Activity (Nociceptin receptor [2])?
Its Activity is 46%.

For CC[C@H](C)[C@H](NC(=O)[C@H](CCCN=C(N)N)NC(=O)[C@H](Cc1ccc(O)cc1)NC(=O)[C@H](Cc1ccc(O)cc1)NC(=O)[C@H](CCCN=C(N)N)NC(C)=O)C(=O)N[C@@H](CCCCN)C(N)=O, which Activity (Nociceptin receptor [2]) is on record?
Its Activity is 60%.

With CC[C@H](C)[C@H](NC(=O)[C@H](CCCNC(=N)N)NC(=O)[C@H](Cc1ccc(O)cc1)NC(=O)[C@H](Cc1ccc(O)cc1)NC(=O)[C@H](CCCNC(=N)N)NC(=O)C(C)C)C(=O)N[C@@H](CCCCN)C(N)=O as the compound, how does the IC50 (Nociceptin receptor [3]) read?
Its IC50 is 1.67 nM.

What about the IC50 (Nociceptin receptor [4]) of the same compound?
Its IC50 is 0.059 nM.

What about the Activity (Nociceptin receptor [2]) of the same compound?
The Activity was 14%.

What does the source list for CC[C@H](C)[C@H](NC(=O)[C@H](CCCNC(=N)N)NC(=O)[C@H](Cc1ccc(O)cc1)NC(=O)[C@H](Cc1ccc(O)cc1)NC(=O)[C@H](CCCNC(=N)N)NC(=O)CC(C)C)C(=O)N[C@@H](CCCCN)C(N)=O?
IC50 (Nociceptin receptor [5]): 2.15 nM; IC50 (Nociceptin receptor [3]): 8.51 nM; IC50 (Nociceptin receptor [4]): 0.033 nM; Activity (Nociceptin receptor [2]): 0%

How did the Kd (Nociceptin receptor [6]) turn out when [3H]C(C(=O)N[C@@H](CCCNC(=N)N)C(=O)N[C@@H](Cc1ccc(O)cc1)C(=O)N[C@@H](Cc1ccc(O)cc1)C(=O)N[C@@H](CCCNC(=N)N)C(=O)N[C@H](C(=O)N[C@@H](CCCCN)C(N)=O)[C@@H](C)CC)C([3H])(C)C (stereo partly specified) was run?
Its Kd is 1.21 nM.
